From the NIST ThermoML archive (doi:10.1016/j.jct.2012.02.007)

Columns and labels:
[1] = osmotic coefficient (dimensionless); mn = molality of the nth substance listed, in mol/kg; details: 323.15 K, Liquid, Vapor Pressure Osmometer
[2] = mn = molality of the nth substance listed, in mol/kg; details: 101.3 kPa, Liquid; for speed of sound: Sing-around technique in a fixed-path interferometer; for mass density: Vibrating tube method

CCCCn1cc[n+](C)c1.N#CN=C=[N-] [1-butyl-3-methylimidazolium dicyanamide] + CCCCO
[1]
Details | osmotic coefficient
m1 = 0.0803 | 0.739
m1 = 0.1014 | 0.707
m1 = 0.2018 | 0.653
m1 = 0.31 | 0.625
m1 = 0.4166 | 0.604
m1 = 0.5175 | 0.594
m1 = 0.8182 | 0.585
m1 = 1.221 | 0.564
m1 = 1.633 | 0.551
m1 = 2.026 | 0.536
m1 = 2.413 | 0.528
m1 = 2.82 | 0.522
m1 = 3.306 | 0.508

[2]
Details | mass density, 293.15 K [kg/m3] | mass density, 308.15 K [kg/m3] | mass density, 323.15 K [kg/m3] | speed of sound, 293.15 K [m/s] | speed of sound, 308.15 K [m/s] | speed of sound, 323.15 K [m/s]
m1 = 0.0564 | 812.2 | 800.77 | 788.99 | 1261.4 | 1211.3 | 1161.9
m1 = 0.1049 | 814.3 | 802.91 | 791.18 | 1264.8 | 1214.9 | 1165.8
m1 = 0.156 | 816.47 | 805.11 | 793.43 | 1268.3 | 1218.6 | 1169.6
m1 = 0.204 | 818.49 | 807.15 | 795.51 | 1271.7 | 1222 | 1173.1
m1 = 0.2581 | 820.7 | 809.41 | 797.8 | 1275.2 | 1225.8 | 1177.1
m1 = 0.5068 | 830.31 | 819.12 | 807.68 | 1290.3 | 1241.6 | 1193.7
m1 = 0.7637 | 839.41 | 828.32 | 817.01 | 1304.9 | 1256.7 | 1209.3
m1 = 1.006 | 847.36 | 836.34 | 825.14 | 1317.6 | 1270 | 1223.2
m1 = 1.271 | 855.38 | 844.45 | 833.35 | 1330.6 | 1283.5 | 1237.4
m1 = 1.516 | 862.28 | 851.41 | 840.4 | 1341.9 | 1295.3 | 1249.7
m1 = 1.766 | 868.85 | 858.05 | 847.12 | 1352.9 | 1306.7 | 1261.6
m1 = 2.004 | 874.76 | 864.01 | 853.15 | 1362.9 | 1317.1 | 1272.3
m1 = 2.509 | 886.17 | 875.53 | 864.81 | 1382.3 | 1337.5 | 1293.4
m1 = 2.993 | 895.87 | 885.33 | 874.72 | 1399.5 | 1355.1 | 1311.7
m1 = 3.535 | 905.44 | 895.01 | 884.51 | 1416.7 | 1373 | 1330.2
